Effect on transduction data for one molecule are collected here from patent US20160193325A1 (priority 2002, published 2016).

The experiment relates to HCVpp. To be noted: 25 μM AZT before and during infection; Huh-7.

Description: HCVpp were treated with 25 μM AZT (3′-azido-3′-deoxythymidine; Sigma-Aldrich, France) before and during infection of target cells (lane j).

Take `Cc1cn([C@H]2C[C@H](N=[N+]=[N-])[C@@H](CO)O2)c(=O)[nH]c1=O` [AZT, 3′-azido-3′-deoxythymidine]: the effect on transduction entry is given as “inhibited transduction”.
